{
  "source": "ChEMBL document CHEMBL1122084",
  "about": "“Relative affinity of 17 alpha- and/or 21-esters and 17 alpha, 21-diesters of cortisol for a glucocorticoid receptor from rat thymocytes” (J Med Chem, 1982)",
  "data": [
    {"target": "T1, Glucocorticoid receptor (Rattus norvegicus) (UniProt P06536)", "T1 sequence (whole entry)": "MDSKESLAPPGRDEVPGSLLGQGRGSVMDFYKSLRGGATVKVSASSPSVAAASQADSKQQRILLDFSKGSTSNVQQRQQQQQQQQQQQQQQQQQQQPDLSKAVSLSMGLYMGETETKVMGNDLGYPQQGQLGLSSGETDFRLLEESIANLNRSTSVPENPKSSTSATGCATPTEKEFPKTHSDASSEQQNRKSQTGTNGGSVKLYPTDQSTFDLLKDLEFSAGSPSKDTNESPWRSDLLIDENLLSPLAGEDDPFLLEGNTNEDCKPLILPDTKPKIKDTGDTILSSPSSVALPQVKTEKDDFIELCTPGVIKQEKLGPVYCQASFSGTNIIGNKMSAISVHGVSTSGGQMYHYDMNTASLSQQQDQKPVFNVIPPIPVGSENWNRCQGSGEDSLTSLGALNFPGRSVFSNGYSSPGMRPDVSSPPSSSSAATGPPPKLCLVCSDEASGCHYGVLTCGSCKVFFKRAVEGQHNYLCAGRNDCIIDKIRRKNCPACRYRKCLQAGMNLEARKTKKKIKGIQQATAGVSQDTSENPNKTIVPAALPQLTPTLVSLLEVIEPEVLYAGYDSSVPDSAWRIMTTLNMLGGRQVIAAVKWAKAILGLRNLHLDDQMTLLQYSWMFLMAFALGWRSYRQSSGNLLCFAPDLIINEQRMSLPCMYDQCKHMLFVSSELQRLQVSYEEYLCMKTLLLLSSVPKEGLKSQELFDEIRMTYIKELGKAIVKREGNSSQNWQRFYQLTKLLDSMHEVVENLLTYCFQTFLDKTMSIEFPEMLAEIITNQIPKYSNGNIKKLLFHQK", "assay": "Relative binding affinity for glucocorticoid receptor of rat thymus cytosol by displacement of [3H]dexamethasone", "values": [
      {"smiles": "C[C@]12CCC(=O)C=C1CC[C@@H]1[C@@H]2[C@@H](O)C[C@@]2(C)[C@H]1CC[C@]2(O)C(=O)CO", "Relative binding affinity": 1}
    ]},
    {"target": "T1, Glucocorticoid receptor (Rattus norvegicus)", "assay": "Relative binding affinity for glucocorticoid receptor of rat thymus cytosol by displacement of [3H]dexamethasone compared to cortisol", "values": [
      {"smiles": "CC(=O)OCC(=O)[C@@]1(OC(C)=O)CCC2C3CCC4=CC(=O)CCC4(C)C3C(O)CC21C", "note": "(stereo partly drawn)", "Relative binding affinity": 0.036},
      {"smiles": "CC(=O)OCC(=O)[C@@]1(O)CC[C@H]2[C@@H]3CCC4=CC(=O)CC[C@]4(C)[C@H]3[C@@H](O)C[C@@]21C", "Relative binding affinity": 0.046},
      {"smiles": "CCCCC(=O)O[C@]1(C(=O)CO)CCC2C3CCC4=CC(=O)CCC4(C)C3C(O)CC21C", "note": "(stereo partly drawn)", "Relative binding affinity": 11.5},
      {"smiles": "CC(=O)O[C@]1(C(=O)CO)CCC2C3CCC4=CC(=O)CCC4(C)C3C(O)CC21C", "note": "(stereo partly drawn)", "Relative binding affinity": 1.14},
      {"smiles": "CCCCC(=O)OCC(=O)[C@@]1(OC(C)=O)CCC2C3CCC4=CC(=O)CCC4(C)C3C(O)CC21C", "note": "(stereo partly drawn)", "Relative binding affinity": 0.272},
      {"smiles": "CCC(=O)OCC(=O)[C@@]1(OC(C)=O)CCC2C3CCC4=CC(=O)CCC4(C)C3C(O)CC21C", "note": "(stereo partly drawn)", "Relative binding affinity": 0.093},
      {"smiles": "CCCCC(=O)O[C@]1(C(=O)COC(C)=O)CCC2C3CCC4=CC(=O)CCC4(C)C3C(O)CC21C", "note": "(stereo partly drawn)", "Relative binding affinity": 0.76},
      {"smiles": "CCCCC(=O)O[C@]1(C(=O)COC(=O)CCC)CCC2C3CCC4=CC(=O)CCC4(C)C3C(O)CC21C", "note": "(stereo partly drawn)", "Relative binding affinity": 1.33},
      {"smiles": "CCCC(=O)OCC(=O)[C@@]1(OC(C)=O)CCC2C3CCC4=CC(=O)CCC4(C)C3C(O)CC21C", "note": "(stereo partly drawn)", "Relative binding affinity": 0.152},
      {"smiles": "CCCCC(=O)O[C@]1(C(=O)COC(=O)CC)CCC2C3CCC4=CC(=O)CCC4(C)C3C(O)CC21C", "note": "(stereo partly drawn)", "Relative binding affinity": 1.17},
      {"smiles": "CCCC(=O)O[C@]1(C(=O)CO)CC[C@H]2[C@@H]3CCC4=CC(=O)CC[C@]4(C)[C@H]3[C@@H](O)C[C@@]21C", "Relative binding affinity": 12.4},
      {"smiles": "CCCCC(=O)OCC(=O)[C@@]1(O)CCC2C3CCC4=CC(=O)CCC4(C)C3C(O)CC21C", "note": "(stereo partly drawn)", "Relative binding affinity": 0.32}
    ]}
  ]
}
